Assay results published in patent US20090293139A1, “DOUBLE-INDUCIBLE GENE ACTIVATION SYSTEM AND ITS APPLICATIONS” (The Texas A&M University System Agency State of Texas, priority 2008, published 2009).

Assays:
iCasp3 precursors = test: Western blot (anti-HA) of transfected cell lysates, iCasp3; assay type: cell-based, monkey; details: for expression of iCasp3 precursors: CVI cells transfected with Glp65 and pTATA-HA-iCasp3, drug alone, anti-HA Western blot
Description: (§1) A double-inducible gene activation system was evaluated in vitro using a cell culture model. Three plasmids were constructed: 1) chimeric transcription factor, Glp65 containing progesterone receptor ligand-binding domain (PR-LBDΔ) (FIG. 1); 2) pTATA-HA-iCasp3 (myristoylated) carrying CBD; and 3) pTATA-HA-iCasp9 carrying CBD (FIGS. 1 and 2). The chimeric transcription factor and one of the two caspase plasmids were transfected into CVI cells (monkey kidney fibroblasts).
(§2) One plasmid expressed a tissue-specific chimeric transcription factor (Glp65) that can be activated by RU486, which functioned as the first induction in our system. In this case, an epidermal-specific keratin 14 (K14) promoter was used to direct gene expression to the keratinocytes of the basal epidermis and hair follicles (KI4-Glp65, FIG. 1; Cao et al., 2002; Kucra et al., 1996). The second plasmid expressed the target transgene. The plasmid contained four copies of the 17-mer GAL4 binding site in the promoter region (FIG. 1). Full length of caspase-3 cDNA with CID binding domain and HA-tag fragment was cloned by polymerase chain reation (PCR) from an expression vector pSH1/M-Fv2-Yama-E (Fan et al., 1999) and was then subcloned into p17×4 TATA-H2 kd vector (Bo et al., 2005) by ClaI and BamH I to generate pTATA-HA-iCasp3 […].
(§3) Cell lysates were assessed by Western blot using an anti-HA antibody. […] With the subsequent application of CID, caspase 3 and caspase 9 were activated as evidenced by the disappearance of the caspase precursors due to the hemagglutinin (HA) tag carrying a caspase cleavage consensus site, DVPD (lanes 4 in FIGS. 3 and 4).

iCasp9 = test: Western blot (anti-HA) of transfected cell lysates, iCasp9; assay type: cell-based, monkey; details: for expression of iCasp9 precursors: CVI cells transfected with Glp65 and pTATA-HA-iCasp9, drug alone, anti-HA Western blot
Description: as §1, §2, §3

caspase-3 = test: Clonetech ApoAlert Caspase Assay, caspase-3 activity in transfected CVI cells; assay type: cell-based, monkey; details: CVI cells treated for 1.5 hrs
Description: as §1

caspase-9 = test: Clonetech ApoAlert Caspase Assay, caspase-9 activity in transfected CVI cells; assay type: cell-based, monkey; details: CVI cells treated for 1.5 hrs
Description: as §1

[1] = system: K14-Glp65/iCasp3 and K14-Glp65/iCasp9 bigenic mice; test: Skin phenotype of adult bigenic mice after RU486 pellet and intraperitoneal CID; assay type: in vivo, mouse
Description: A double-inducible gene activation system was tested in vivo in two bigenic mouse lines, K14-Glp65/iCasp3 and K14-Glp65/iCasp9. The bigenic mice were generated by breeding two individual mouse lines.
The breeding of the first and second transgenic mouse lines generated bigenic mice called K14-Glp65/iCasp3 and K14-Glp65/iCasp9, which harbored both RU486 and CID regulators as depicted in FIG. 1. With the application of RU486, the Glp65 fusion protein was exclusively expressed in skin keratinocytes, which subsequently initiated caspase precursor induction.
Bigenic mice between 8 and 15 weeks of age were subjected to RU486 treatment using a 21-day-release pellet that was surgically inserted beneath the skin in the region of the posterior scapula. The addition of RU486 activates the chimeric transcription factor and allows it to bind to the GAL4 DNA binding site of the caspase precursor target gene (either icasp3 or icasp9) and induces target gene expression. After seven days of RU486 treatment, CID was applied intraperitoneally to induce self-activation of caspase precursors. Placebo pellets lacking RU486 and CID-diluent were used for control groups.

[2] = system: K14-Glp65/iCasp3 and K14-Glp65/iCasp9 bigenic mice; test: Skin phenotype of neonates after RU486 in utero and topical CID; assay type: in vivo, mouse; details: RU486 in utero; topical CID twice per day, after two days; compared to control littermates
Description: (§4) To closely monitor the phenotypic changes of the skin of bigenic mice after the activation of caspases through the double-inducible system, we tested system in neonates by delivering RU486 in utero. The RU486 was dissolved in sesame oil and delivered intraperitoneally for 5 days at a dosage of 100 μg/kg per day into pregnant female K14-Glp65/iCasp3 and K14-Glp65/iCasp9 bigenic mice at 14.5 days gestation. To counter the abortion side-effect of RU486, progesterone (Sigma, St. Louis, Mo.) at 0.5 mg/mouse per day was applied along with RU486. Transgenic pups were treated topically with CID on their dorsal anterior-posterior (AP) axes twice per day and monitored closely for phenotypic changes or visible signs of apoptosis. Control littermates were treated with only the diluent only without CID. […] On day four, skin biopsies were taken from the back skin of the pups and fixed in 4% paraformaldehyde.

[3] = system: adult mouse ear skins and newborn mouse back skins; test: Microscopic and histological analysis of skin (H&E); assay type: in vivo
Description: The skin apoptosis was evaluated by TUNEL assay (panels j-l).
Skin sections from K14-Glp65/iCasp9 newborn mice back skin were visualized by H&E stain (panels a-c), and were immunostained by keratin 14 antibody (panels d-f). […] The skin apoptosis was evaluated by TUNEL assay (panels j-l).
Apoptosis was evaluated by TUNEL staining.

[4] = system: adult mouse ear skins and newborn mouse back skins; test: TUNEL staining of skin (apoptosis); assay type: in vivo
Description: (§5) Induction of the two caspases was then further studied by immunohistochemical staining with an anti-HA antibody. […] Apoptosis was evaluated by TUNEL staining.

caspase 3 = test: Western blot of mouse skin tissues, induced caspase 3; assay type: in vivo; details: transgenic mouse skin
Description: as §4

caspase 9 = test: Western blot of mouse skin tissues, induced caspase 9; assay type: in vivo; details: transgenic mouse skin
Description: as §4

caspase precursors = test: Immunohistochemical staining of skin with anti-HA antibody; assay type: in vivo; details: adult mouse ear skins and newborn mouse back skins
Description: as §5

[5] = subsequent application of CID after RU486, CVI cells

Row | Structure (SMILES) | expression of iCasp3 precursors (iCasp3 precursors) | caspase 3 activation (disappearance of the caspase precursors) (iCasp3 precursors; [5]) | expression of iCasp9 precursors (iCasp9) | caspase 9 activation (disappearance of the caspase precursors) (iCasp9; [5]) | increase in caspase-3 activity (caspase-3) | increase in caspase-9 activity (caspase-9) | skin phenotype of ears ([1]; adult bigenic mice, five days following intraperitoneal CID after seven days of RU486 pellet) | skin phenotype of pups [2] | skin structure [3] | TUNEL-positive nuclei (apoptosis) [4] | skin phenotype of ears ([1]; adult bigenic mice that only received RU486 treatment) | expression level of induced caspase 3 (caspase 3) | expression level of induced caspase 9 (caspase 9) | expression of caspase precursors (anti-HA staining) (caspase precursors)
1 | CC[C@H](C(=O)N1CCCC[C@H]1C(=O)O[C@H](CCc1ccc(OC)c(OC)c1)c1cccc(OCC(=O)NCC(CNC(=O)COc2cccc([C@@H](CCc3ccc(OC)c(OC)c3)OC(=O)[C@@H]3CCCCN3C(=O)[C@@H](CC)c3cc(OC)c(OC)c(OC)c3)c2)CN(C)C)c1)c1cc(OC)c(OC)c(OC)c1 [CID] | No caspase precursors were induced | activated | No caspase precursors were induced | activated | not | not | reddening of the surface layers of the skin and thickness | exhibited peeling and appeared dehydrated | normal skin structures | no or basal level of apoptosis | – | – | – | –
2 | CC#C[C@]1(O)CC[C@H]2[C@@H]3CCC4=CC(=O)CCC4=C3[C@@H](c3ccc(N(C)C)cc3)C[C@@]21C [RU486, mifepristone] | induced the expression | – | induced the expression | – | not | not | – | – | normal skin structures | no or basal level of apoptosis | did not observe this phenotype | strong expression | strong expression | Strong expression
